In brackets after ≈: the same amount, converted by molar mass. Where a SMILES comes first, the peptide text is derived from it. [ ]: non-standard residue; d: D form.
Assays:
[1] = system: S. typhimurium; assay: microbe, parasite or virus in culture; assay type: cell-based, Salmonella typhimurium
Procedure, shortened: (§1)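 MIC read-out = lowest peptide level with no bacterial proliferation. Strains diluted in MH medium to 2×10^6 CFU; peptide twofold serial dilutions in MH added 1:1 in microtiter wells.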

[2] = system: MDRST 8009; assay type: cell-based, Salmonella typhimurium; conditions: agent alone
Procedure, shortened: as §1

[3] = system: multi-drug resistant bacteria; assay: MIC, summary statements for multi-drug resistant bacteria; assay type: cell-based
Protocol: For the antibacterial activity, a minimal inhibitory concentration (MIC) of a peptide in which fungus bodies were not split in an MH medium with sufficient nutrients was measured.
Specifically, the strains described in the following [Table 2] were purchased and diluted with an MH medium such that the number of bacteria was 2×10^6 colony-forming units (CFUs), 100 μl of each of the diluted strains was aliquoted into a 96-well microtiter plate, and then 100 μl of a peptide solution diluted with the MH medium (solution diluted stepwise at 2: 1) was added to each well.

[4] = system: B. subtilis; assay: microbe, parasite or virus in culture; assay type: cell-based, Bacillus subtilis
Procedure, shortened: as §1

[5] = system: MDREC 1229; assay: microbe, parasite or virus in culture; assay type: cell-based, Escherichia coli
Procedure, shortened: as §1

[6] = system: E. coli; assay: microbe, parasite or virus in culture; assay type: cell-based, Escherichia coli; conditions: 16 h
Procedure, shortened: as §1

[7] = system: MRSA 3114; assay type: cell-based, Staphylococcus aureus; conditions: 3114
Procedure, shortened: as §1

[8] = system: MRSA 3126; assay type: cell-based, Staphylococcus aureus; conditions: 3126
Procedure, shortened: as §1

[9] = system: S. aureus; assay: microbe, parasite or virus in culture; assay type: cell-based, Staphylococcus aureus
Procedure, shortened: as §1

[10] = system: MDREC 1229; assay: MIC of antibiotic during combined treatment with antimicrobial peptide; assay type: cell-based, Escherichia coli
Procedure, shortened: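 Antibiotic MIC came from antibiotic dilutions added to bacteria (2×10^6 CFU/ml, MH medium) already combined with peptide serially diluted 2:1 from its own MIC. Swapping the roles of the two agents gave the peptide MIC.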

[11] = system: MDREC 1238; assay type: cell-based, Escherichia coli
Procedure, shortened: as §1

[12] = system: MDRPA 2002; assay type: cell-based, Pseudomonas aeruginosa
Procedure, shortened: as §1

[13] = system: MDRPA 2003; assay type: cell-based, Pseudomonas aeruginosa
Procedure, shortened: as §1

[14] = system: MDRAB 12036; assay type: cell-based, Acinetobacter baumannii
Procedure, shortened: as §1

[15] = peptide treatment concentration 1 μg/ml
[16] = peptide treatment concentration 2 μg/ml
[17] = peptide treatment concentration 4 μg/ml
[18] = peptide treatment concentration 6 μg/ml
[19] = peptide treatment concentration 8 μg/ml
[20] = peptide treatment concentration 16 μg/ml
[21] = peptide treatment concentration 32 μg/ml
[22] = peptide treatment concentration 64 μg/ml

SMILES: CC[C@H](C)[C@H](NC(=O)[C@H](CCCCN)NC(=O)[C@H](Cc1c[nH]c2ccccc12)NC(=O)[C@@H](N)CCCNC(=N)N)C(=O)N[C@@H](Cc1ccccc1)C(=O)N[C@@H](CCCCN)C(=O)N[C@@H](CCCCN)C(=O)N[C@H](C(=O)N[C@H](CC(C)C)C(=O)N[C@@H](CCCCN)C(=O)N[C@@H](CC(C)C)C(=O)N[C@@H](CC(C)C)C(=O)N[C@@H](Cc1c[nH]cn1)C(=O)N[C@@H](CCC(=O)O)C(=O)N[C@@H](Cc1ccccc1)C(=O)N[C@@H](CCCCN)C(=O)N[C@@H](CCCCN)C(=O)N[C@@H](Cc1ccccc1)C(N)=O)[C@@H](C)CC [PapMA-23, RWK IFK KIl KLL HEF KKF-NH2] (H-RWKIFKKI[dL]KLLHEFKKF-NH2; N-terminus assumed)
- Minimal inhibitory concentration MIC [1]: 32 µg/mL (≈ 13.3 µM)
- Minimal inhibitory concentration MIC [2]: 32 µg/mL (≈ 13.3 µM)
- Antibacterial activity relative to PapMA-1 [3]: twice to four times higher
- Minimal inhibitory concentration MIC [4]: >128 µg/mL
- Minimal inhibitory concentration MIC [5]: 32 µg/mL (≈ 13.3 µM)
- Peptide MIC, peptide alone [5]: 32 µg/mL
- Minimal inhibitory concentration MIC [6]: 32 µg/mL (≈ 13.3 µM)
- Minimal inhibitory concentration MIC [7]: >128 µg/mL
- Minimal inhibitory concentration MIC [8]: >128 µg/mL
- Minimal inhibitory concentration MIC [9]: >128 µg/mL
- Antibiotic MIC, Erythromycin [10, 15]: 128 µg/mL
- Antibiotic MIC, Linezolid [10, 15]: >128 µg/mL
- Antibiotic MIC, Vancomycin [10, 15]: >128 µg/mL
- Antibiotic MIC, Erythromycin [10, 16]: 64 µg/mL
- Antibiotic MIC, Linezolid [10, 16]: 128 µg/mL
- Antibiotic MIC, Vancomycin [10, 16]: >128 µg/mL
- Antibiotic MIC, Erythromycin [10, 17]: 32 µg/mL
- Antibiotic MIC, Linezolid [10, 17]: 64 µg/mL
- Antibiotic MIC, Vancomycin [10, 17]: >128 µg/mL
- Antibiotic MIC, Erythromycin [10, 18]: 8 µg/mL
- Antibiotic MIC, Linezolid [10, 18]: 32 µg/mL
- Antibiotic MIC, Vancomycin [10, 18]: 128 µg/mL
- Antibiotic MIC, Erythromycin [10, 19]: 4 µg/mL
- Antibiotic MIC, Linezolid [10, 19]: 32 µg/mL
- Antibiotic MIC, Vancomycin [10, 19]: 32 µg/mL
- Antibiotic MIC, Erythromycin [10, 20]: 1 µg/mL
- Antibiotic MIC, Linezolid [10, 20]: 16 µg/mL
- Antibiotic MIC, Vancomycin [10, 20]: 16 µg/mL
- Antibiotic MIC, Erythromycin [10, 21]: 0 µg/mL
- Antibiotic MIC, Linezolid [10, 21]: 0 µg/mL
- Antibiotic MIC, Vancomycin [10, 21]: 0 µg/mL
- Antibiotic MIC, Erythromycin [10, 22]: 0 µg/mL
- Antibiotic MIC, Linezolid [10, 22]: 0 µg/mL
- Antibiotic MIC, Vancomycin [10, 22]: 0 µg/mL
- Minimal inhibitory concentration MIC [11]: 32 µg/mL (≈ 13.3 µM)
- Minimal inhibitory concentration MIC [12]: 64 µg/mL (≈ 26.6 µM)
- Minimal inhibitory concentration MIC [13]: 64 µg/mL (≈ 26.6 µM)
- Minimal inhibitory concentration MIC [14]: 32 µg/mL (≈ 13.3 µM)

SMILES: CC[C@H](C)[C@H](NC(=O)[C@H](CCCCN)NC(=O)[C@H](Cc1c[nH]c2ccccc12)NC(=O)[C@@H](N)CCCNC(=N)N)C(=O)N[C@@H](Cc1ccccc1)C(=O)N[C@@H](CCCCN)C(=O)N[C@@H](CCCCN)C(=O)N[C@H](C(=O)N1CCC[C@H]1C(=O)N[C@@H](CCCCN)C(=O)N[C@@H](CC(C)C)C(=O)N[C@@H](CC(C)C)C(=O)N[C@@H](Cc1c[nH]cn1)C(=O)N[C@@H](CCC(=O)O)C(=O)N[C@@H](C)C(=O)N[C@@H](CCCCN)C(=O)N[C@@H](CCCCN)C(=O)N[C@@H](Cc1c[nH]c2ccccc12)C(N)=O)[C@@H](C)CC [PapMA-13, RWK IFK KIP KLL HEA KKW-NH2] (H-RWKIFKKIPKLLHEAKKW-NH2; N-terminus assumed)
- Minimal inhibitory concentration MIC [1]: 16 µg/mL (≈ 6.81 µM)
- Minimal inhibitory concentration MIC [2]: 16 µg/mL (≈ 6.81 µM)
- Antibacterial activity relative to PapMA-1 [3]: twice to four times higher
- Minimal inhibitory concentration MIC [4]: >128 µg/mL
- Minimal inhibitory concentration MIC [5]: 16 µg/mL (≈ 6.81 µM)
- Peptide MIC, peptide alone [5]: 16 µg/mL
- Minimal inhibitory concentration MIC [6]: 16 µg/mL (≈ 6.81 µM)
- Minimal inhibitory concentration MIC [7]: >128 µg/mL
- Minimal inhibitory concentration MIC [8]: >128 µg/mL
- Minimal inhibitory concentration MIC [9]: >128 µg/mL
- Antibiotic MIC, Erythromycin [10, 15]: >128 µg/mL
- Antibiotic MIC, Linezolid [10, 15]: >128 µg/mL
- Antibiotic MIC, Vancomycin [10, 15]: >128 µg/mL
- Antibiotic MIC, Erythromycin [10, 16]: 32 µg/mL
- Antibiotic MIC, Linezolid [10, 16]: 128 µg/mL
- Antibiotic MIC, Vancomycin [10, 16]: >128 µg/mL
- Antibiotic MIC, Erythromycin [10, 17]: 8 µg/mL
- Antibiotic MIC, Linezolid [10, 17]: 64 µg/mL
- Antibiotic MIC, Vancomycin [10, 17]: 64 µg/mL
- Antibiotic MIC, Erythromycin [10, 18]: 4 µg/mL
- Antibiotic MIC, Linezolid [10, 18]: 8 µg/mL
- Antibiotic MIC, Vancomycin [10, 18]: 16 µg/mL
- Antibiotic MIC, Erythromycin [10, 19]: 0.5 µg/mL
- Antibiotic MIC, Linezolid [10, 19]: 4 µg/mL
- Antibiotic MIC, Vancomycin [10, 19]: 4 µg/mL
- Antibiotic MIC, Erythromycin [10, 20]: 0 µg/mL
- Antibiotic MIC, Linezolid [10, 20]: 0 µg/mL
- Antibiotic MIC, Vancomycin [10, 20]: 0 µg/mL
- Antibiotic MIC, Erythromycin [10, 21]: 0 µg/mL
- Antibiotic MIC, Linezolid [10, 21]: 0 µg/mL
- Antibiotic MIC, Vancomycin [10, 21]: 0 µg/mL
- Antibiotic MIC, Erythromycin [10, 22]: 0 µg/mL
- Antibiotic MIC, Linezolid [10, 22]: 0 µg/mL
- Antibiotic MIC, Vancomycin [10, 22]: 0 µg/mL
- Minimal inhibitory concentration MIC [11]: 16 µg/mL (≈ 6.81 µM)
- Minimal inhibitory concentration MIC [12]: 128 µg/mL (≈ 54.5 µM)
- Minimal inhibitory concentration MIC [13]: 128 µg/mL (≈ 54.5 µM)
- Minimal inhibitory concentration MIC [14]: 16 µg/mL (≈ 6.81 µM)
